Assay results taken from patent US4018786A, “2-Aminothiazolines and a process for preparation thereof” (Centre d'Etudes pour l'Industrie Pharmaceutique, priority 1974, dated 1977).
Where a name gives a salt, the structure may show the parent alone.

Key:
[1] = LD50/24 h by the method of Miller & Tainter, intravenous route, mice; conditions: mouse, in vivo, read-out: LD50 /24 h/kg of body weight
[2] = Triton test (hypocholesterolemic action); format: in vivo, rat; conditions: for reduction of free cholesterol and of total cholesterol: 100 mg/kg oral, rat, 18 hours after Triton; for reduction of free cholesterol and total cholesterol levels: 50 mg/kg oral
Procedure: The intravenous injection of Triton W-R 1339 (an alkylaryl polyetheralcohol sold by Rohm and Haas) enables one to artifically increase, in the rat, certain lipidic fractions of serum and thus to evalute the hypocholesterolemic action of the compounds of the invention. […]
Eighteen hours later a blood sample is taken and the β-lipoproteins, the free cholesterol and the cholesterol are determined.
This test, which enables one to evaluate the hypocholesterolemic action of the derivatives to be tested, on serum levels of certain lipid fractions, has shown the remarkable effect of the compounds according to the invention.

[3] = Propyl-thiouracil test (hypocholesterolemic action); format: in vivo, rats
Procedure: a. Propyl-thiouracil test (RANNEY et Coll. J. Pharmacol. Exper. Therap. 1963, 142, 132-136)
The administration of propyl-thiouracil to adult rats renders them hypercholesterolemic; in effect, the plasmatic cholesterol rate has increased by about 15%. The testing is carried out on two groups of rats, the control group receiving the propyl-thiouracil only whilst the treated group also receives 100 mg/kg of the compounds to be tested, by the oral route.
On the 11th day of the experiment, the blood samples are taken and the β-lipoproteins, the free cholesterol and the total cholesterol measured.
a. Propyl-thiouracil test (Ranney et Coll. J. Pharmacol. Exper. Therap. 1963, 142, 132-136)
This test has shown the clearly favourable action of the derivatives according to the invention, at a dose of […].

[4] = system: carrageenin-induced oedema; test: Localised carrageenin-induced oedema method (anti-inflammatory action); format: in vivo, rat; conditions: for percentage of anti-inflammatory activity, First Hour / percentage of anti-inflammatory activity, Second Hour / percentage of anti-inflammatory activity, Third Hour / percentage of anti-inflammatory activity, Fifth Hour: 100 mg/kg oral per administration, rat; for percentage of anti-inflammatory activity, First Hour: 1 hour after carrageenin; for percentage of anti-inflammatory activity, Second Hour: 2 hours after carrageenin; for percentage of anti-inflammatory activity, Third Hour: 3 hours after carrageenin; for percentage of anti-inflammatory activity, Fifth Hour: 5 hours after carrageenin; for reduction of the inflammatory reaction, 1st hour / reduction of the inflammatory reaction, 2nd hour / reduction of the inflammatory reaction, 3rd hour / reduction of the inflammatory reaction, 4th hour / reduction of the inflammatory reaction, 5th hour: 50 mg/kg oral
Procedure: a. Localised carrageenin-induced oedema method
A 1% solution of carrageenin (0.1 ml) is injected into the metatarsal flexor muscles of the right hand rear paw of the rat at time "0".
The animals of the treated group also receive, by the oral route, 100 mg/kg of the compound to be tested, respectively 1 hour before and at the same time as the injection of the phlogogenic agent, then 1 hour and 21/2 hours after. The measurements made with the aid of a micrometer at the time "0" and 1 hour, 2 hours, 3 hours and 5 hours after the administration of the carrageenin, enable one to determine, in relation to time, the percentage of anti-inflammatory activity in relation to the control group.
a. method of localised carrageenin-induced oedema
The oral administration of […] of the derivatives to be tested produces a clear reduction of the inflammatory reaction provoked.

ovalbumin-induced oedema = test: Generalised ovalbumin-induced oedema method (anti-inflammatory action); format: in vivo, rats; conditions: for percentage of decrease of the oedematic reaction, Second Hour / percentage of decrease of the oedematic reaction, Third Hour: 100 mg oral, rats; for percentage of reduction of oedematic reaction, 1st hour / percentage of reduction of oedematic reaction, 2nd hour: 50 mg/kg oral
Procedure: b. Generalised ovalbumin-induced oedema method
A simultaneous intraperitoneal injection of 1 ml of ovalbumin and of 0.5 ml of an aqueous solution of Evans Blue at 1 ml per thousand by weight is administered to rats.
For comparative purposes, 100 mg of the compound to be tested is administered orally to the animals of the group to be treated, 1 hour before and at the same time as the ovalbumin. The intensity of the phenomenon thus provoked in noted by a FIG. 1 to 5 according to the intensity of the inflammatory syndrome.
Thus one determines the average of the oedematic intensity and the percentage of decrease of the oedematic reaction in relation to the control animals.
b. method of generalised ovalbumin-induced oedema
The percentages of reduction of oedematic reaction, in the test animals, in subjects treated by the oral route by the administration of […] of the compound to be tested show the clear anti-inflammatory action of the compounds according to the invention.

[5] = LD50/24 hours by the method of Miller & Tainter, intravenous route (derivatives 34 to 38, species not restated); conditions: in vivo, read-out: LD50 /24 hours /kg of body weight
[6] = 100 mg/kg oral, rats, 11th day, control 0.20 g/l
[7] = 100 mg/kg oral, rats, 11th day, control 0.86 g/l

SMILES | LD50 at 24 h [1] [mg/kg] | LD50 at 24 h [5] [mg/kg] | reduction of free cholesterol and total cholesterol levels [2] [%] | reduction of the inflammatory reaction, 1st hour [4] | reduction of the inflammatory reaction, 2nd hour [4] | reduction of the inflammatory reaction, 3rd hour [4] | reduction of the inflammatory reaction, 4th hour [4] | reduction of the inflammatory reaction, 5th hour [4] | Free cholesterol ([3]; 50 mg/kg, control 0.25) | Total cholesterol ([3]; 50 mg/kg, control 0.89) | percentage of reduction of oedematic reaction, 1st hour (ovalbumin-induced oedema) [%] | percentage of reduction of oedematic reaction, 2nd hour (ovalbumin-induced oedema) [%] | also measured
CCN(CC)CC=C1CN=C(NC2CCCCC2)S1 [Derivative No. 1, 2-cyclohexylamino 5-β-diethylaminoethylidene Δ^2-thiazoline] | 42 |  |  |  |  |  |  |  |  |  |  |  | reduction of free cholesterol and of total cholesterol [2]: ~28%; Free cholesterol [3, 6]: 0.14 g/L; Total cholesterol [3, 7]: 0.60 g/L
CCN(CC)CCC1CN=C(NC2CCCCC2)S1 (stereo not drawn) [Derivative No. 3, 2-cyclohexlamino 5-β-diethylaminoethyl Δ^2-thiazoline] |  |  |  |  |  |  |  |  |  |  |  |  | percentage of anti-inflammatory activity, First Hour [4]: 37%; percentage of anti-inflammatory activity, Second Hour [4]: 39%; percentage of anti-inflammatory activity, Third Hour [4]: 46%; percentage of anti-inflammatory activity, Fifth Hour [4]: 48%; percentage of decrease of the oedematic reaction, Second Hour (ovalbumin-induced oedema): 54%; percentage of decrease of the oedematic reaction, Third Hour (ovalbumin-induced oedema): 60%
CCN(CC)CC=C1CN=C(NCC(O)c2ccccc2)S1 (stereo not drawn) [Derivative No. 4, 2-β-hydroxyphenethylamino 5-(N-diethylaminoethylidene) Δ^2-thiazoline] |  |  |  |  |  |  |  |  |  |  |  |  | percentage of anti-inflammatory activity, First Hour [4]: 39%; percentage of anti-inflammatory activity, Second Hour [4]: 40%; percentage of anti-inflammatory activity, Third Hour [4]: 49%; percentage of anti-inflammatory activity, Fifth Hour [4]: 53%; percentage of decrease of the oedematic reaction, Second Hour (ovalbumin-induced oedema): 59%; percentage of decrease of the oedematic reaction, Third Hour (ovalbumin-induced oedema): 65%
CCCCNc1ncc(CCN(CC)CC)s1 [Derivative No. 9, 2-butylamino 5-β-diethylaminoethyl thiazole dihydrochloride] |  |  |  |  |  |  |  |  |  |  |  |  | reduction of free cholesterol and of total cholesterol [2]: ~24%; Free cholesterol [3, 6]: 0.15 g/L; Total cholesterol [3, 7]: 0.58 g/L
CCN(CC)CC=C1CN=C(N(CC)C2CCCCC2)S1 [Derivative No. 10, 5-(β-diethylaminoethylidene) 2-N-ethyl N-cyclohexylamino) Δ^2-thiazoline oxalate] |  |  |  |  |  |  |  |  |  |  |  |  | percentage of anti-inflammatory activity, First Hour [4]: 44%; percentage of anti-inflammatory activity, Second Hour [4]: 47%; percentage of anti-inflammatory activity, Third Hour [4]: 52%; percentage of anti-inflammatory activity, Fifth Hour [4]: 56%; percentage of decrease of the oedematic reaction, Second Hour (ovalbumin-induced oedema): 57%; percentage of decrease of the oedematic reaction, Third Hour (ovalbumin-induced oedema): 64%
CCN(CC)CC=C1CN=C(N2CCN(C)CC2)S1 [Derivative No. 12, 5-(2-diethylaminoethylidene) 2-(4-methyl 1-piperazinyl) Δ^2-thiazoline tetrahydrochloride] | 90 |  |  |  |  |  |  |  |  |  |  |  | reduction of free cholesterol and of total cholesterol [2]: ~26%; Free cholesterol [3, 6]: 0.15 g/L; Total cholesterol [3, 7]: 0.61 g/L
CCN(CC)CC=C1CN=C(N2CCOCC2)S1 [Derivative No. 14, 5-β-diethylaminoethylidene 2-morpholino Δ^2-thiazoline oxalate] | 105 |  |  |  |  |  |  |  |  |  |  |  | 
CCN(CC)CC=C1CN=C(N(CC)CC)S1 [Derivative No. 15, 2-diethylamino 5-(2-diethylaminoethylidene) Δ^2-thiazoline dioxalate] |  |  |  |  |  |  |  |  |  |  |  |  | reduction of free cholesterol and of total cholesterol [2]: ~22%; Free cholesterol [3, 6]: 0.12 g/L; Total cholesterol [3, 7]: 0.58 g/L
CCN(CC)CC=C1CN=C(NC(C)(C)CC(C)(C)C)S1 [Derivative No. 18, 5-(β-diethylaminoethylidene) 2-(1,1,3,3-tetramethyl-butyl-amino) Δ^2-thiazoline] | 45 |  |  |  |  |  |  |  |  |  |  |  | 
CCN(CC)CC=C1CN=C(NC)S1 [Derivative No. 21, 5-(β-diethylaminoethylidene) 2-methylamino Δ^2-thiazoline oxalate] | 92 |  |  |  |  |  |  |  |  |  |  |  | 
CCN(CC)CCc1cnc(N(C)C2CCCCC2)s1 [Derivative No. 22, 5-β-diethylaminoethyl 2-(N-methyl N-cyclohexylamino)-thiazole dioxalate] |  |  |  |  |  |  |  |  |  |  |  |  | percentage of anti-inflammatory activity, First Hour [4]: 42%; percentage of anti-inflammatory activity, Second Hour [4]: 46%; percentage of anti-inflammatory activity, Third Hour [4]: 54%; percentage of anti-inflammatory activity, Fifth Hour [4]: 56%; percentage of decrease of the oedematic reaction, Second Hour (ovalbumin-induced oedema): 52%; percentage of decrease of the oedematic reaction, Third Hour (ovalbumin-induced oedema): 60%
Clc1ccc(N2CCN(CC=C3CN=C(NC4CCCCC4)S3)CC2)cc1 [Derivative No. 34, 5-[4-β-(parachlorophenyl)piperazinoethylidene] 2-cyclohexylamino Δ^2-thiazoline] |  | 35 | ~34 | 40 | 44 | 50 | 53 | 55 | 0.13 | 0.55 | 58 | 62 | 
C(CN1CCN(c2ccccc2)CC1)=C1CN=C(NC2CCCCC2)S1 [Derivative No. 35, 2-cyclohexylamino 5-[4-β-(phenyl)piperazinoethylidene] Δ^2-thiazoline] |  | 48 | ~29 | 45 | 46 | 55 | 57 | 58 | 0.11 | 0.61 | 62 | 65 | 
FC(F)(F)c1cccc(N2CCN(CC=C3CN=C(NC4CCCCC4)S3)CC2)c1 [Derivative No. 36] |  | 65 | ~27 | 46 | 50 | 59 | 61 | 62 | 0.13 | 0.63 | 55 | 61 | 
Clc1ccccc1N1CCN(CC=C2CN=C(NC3CCCCC3)S2)CC1 [Derivative No. 37, 5-[4-β-(orthochlorophenyl)piperazinoethylidene]2-cyclohexylamino Δ^2-thiazoline] |  | 57 | ~41 | 38 | 43 | 48 | 52 | 57 | 0.10 | 0.60 | 60 | 68 | 
COc1ccc(N2CCN(CC=C3CN=C(NC4CCCCC4)S3)CC2)cc1 [Derivative No. 38, 2-cyclohexylamino 5-[4-β-(paramethoxyphenyl)piperazinoethylidene] Δ^2-thiazoline] |  | 52 | ~44 | 49 | 53 | 56 | 60 | 61 | 0.09 g/L | 0.58 | 64 | 70 | 
